Among the data in patent US10676446B2, “Bicyclic quinazolinone derivatives” (Hoffmann-La Roche Inc., priority 2015, dated 2020) are IC50 values, retold here.

As usually defined, the IC50 is the concentration that inhibits the measured activity by half. A lower IC50 goes with greater potency.

Structures are written as SMILES.

In this experiment the target is human ATX (autotaxin, ENPP2), His-tagged (Homo sapiens (Human), UniProt Q13822). Description: Human ATX enzyme inhibition assay (fluorescence quenching, MR121 substrate). The class given is biochemical. The following applies: 30 nM ATX, 1 μM MR121 substrate, 30° C., pH 8.0. As to the method:
Human ATX Enzyme Inhibition Assay
ATX inhibition was measured by a fluorescence quenching assay using a specifically labeled substrate analogue (MR121 substrate). To obtain this MR121 substrate, BOC and TBS protected 6-amino-hexanoic acid (R)-3-({2-[3-(2-{2-[2-(2-amino-ethoxy)-ethoxy]-ethoxy}-ethoxy)-propionylamino]-ethoxy}-hydroxy-phosphoryloxy)-2-hydroxy-propyl ester (Ferguson et al., Org. Lett. 2006, 8, 2023) was labeled with MR121 fluorophore [CAS RN 185308-24-1], 1-(3-carboxypropyl)-11-ethyl-1,2,3,4,8,9,10,11-octahydro-dipyrido[3,2-b:2′,3′-i]phenoxazin-13-ium) on the free amine of the ethanolamine side and then, after deprotection, subsequently with tryptophan on the side of the aminohexanoic acid.
Assay working solutions were made as follows:
Assay buffer (50 mM Tris-HCl, 140 mM NaCl, 5 mM KCl, 1 mM CaCl2, 1 mM MgCl2, 0.01% Triton-X-100, pH 8.0;
ATX solution: ATX (human His-tagged) stock solution (1.08 mg/mL in 20 mM bicine, pH 8.5, 0.15 M NaCl, 10% glycerol, 0.3% CHAPS, 0.02% NaN3), diluted to 1.4-2.5× final concentration in assay buffer;
MR121 substrate solution: MR121 substrate stock solution (800 μM MR121 substrate in DMSO), diluted to 2-5× final concentration in assay buffer.
Test compounds (10 mM stock in DMSO, 8 μL) were obtained in 384 well sample plates (Corning Costar #3655) and diluted with 8 μL DMSO. Row-wise serial dilutions were made by transferring 8 μL cpd solution to the next row up to row O. The compound and control solutions were mixed five times and 2 μL were transferred to 384 well assay plates (Corning Costar #3702). Then, 15 μL of 41.7 nM ATX solution was added (30 nM final concentration), mixed five times and then incubated for 15 minutes at 30° C. 10 μL of MR121 substrate solution was added (1 μM final concentration), mixed 30 times and then incubated for 15 minutes at 30° C.
Molecule `COC(=O)N1CCC(c2ccc3ncn(CC(=O)N(C)Cc4ccc(C#N)c(Cl)c4)c(=O)c3c2)CC1` [Example 160, Methyl 4-[3-[2-[(3-chloro-4-cyanophenyl)methyl-methylamino]-2-oxoethyl]-4-oxoquinazolin-6-yl]piperidine-1-carboxylate] gave an IC50 of 0.158 µM. Next, `CN(Cc1ccc(Cl)c(Cl)c1)C(=O)Cn1cnc2ccc(N3CCN(C(=O)C4CC(F)(F)C4)CC3)cc2c1=O` [Example 75]: 0.005 µM; `CC(=O)N1CCN(c2ccc3ncn(CC(=O)N(CCC(=O)O)Cc4ccc(Cl)c(Cl)c4)c(=O)c3c2)CC1` [Example 54, 3-[[2-[6-(4-Acetylpiperazin-1-yl)-4-oxoquinazolin-3-yl]acetyl]-[(3,4-dichlorophenyl)methyl]amino]propanoic acid]: 0.831 µM; `COC(C)C(=O)N1CCC(c2ccc3ncn(CC(=O)N(C)Cc4ccc(C#N)c(Cl)c4)c(=O)c3c2)CC1` (stereo not shown) [Example 133]: 0.001 µM. Next, `CC(=O)N1CCN(c2ccc3ncn(CC(=O)N(C)Cc4ccc(C#N)c(F)c4)c(=O)c3c2)CC1` [Example 45]: 0.038 µM; `CC(=O)N1CC2CC1CC2c1ccc2ncn(CC(=O)NCc3ccc(Cl)c(Cl)c3)c(=O)c2c1` (stereo not shown) [Example 147, 2-[6-[2-Acetyl-2-azabicyclo[2.2.1]heptan-5-yl]-4-oxoquinazolin-3-yl]-N-[(3,4-dichlorophenyl)methyl]acetamide]: 0.14 µM; `CC(=O)N1CCC(O)(c2ccc3ncn(CC(=O)N(C)Cc4ccc(Cl)c(Cl)c4)c(=O)c3c2)CC1` [Example 184, 2-[6-(1-Acetyl-4-hydroxypiperidin-4-yl)-4-oxoquinazolin-3-yl]-N-[(3,4-dichlorophenyl)methyl]-N-methylacetamide]: 0.086 µM. `CC(=O)N1CCN(c2ccc3ncn(CC(=O)NCc4ccc(C(F)(F)F)nc4)c(=O)c3c2)CC1` [Example 16] returned an IC50 of 0.207 µM. The figure for `COCCC(=O)N1CCC(c2cc3c(=O)n(CC(=O)N(C)Cc4ccc(C#N)c(Cl)c4)cnc3cn2)CC1` [Example 190, N-[(3-Chloro-4-cyanophenyl)methyl]-2-[6-[1-(3-methoxypropanoyl)piperidin-4-yl]-4-oxopyrido[3,4-d]pyrimidin-3-yl]-N-methylacetamide] is 0.001 µM. The molecule `COC1CC(C(=O)N2CCN(c3ccc4ncn(CC(=O)N(C)Cc5ccc(Cl)c(Cl)c5)c(=O)c4c3)CC2)C1` (stereo not shown) [Example 78] returned an IC50 of 0.009 µM. Next, `CC(=O)N1CCN(c2ccc3ncn(CC(=O)NCc4cccc([N+](=O)[O-])c4)c(=O)c3c2)CC1` [Example 37]: 0.073 µM; `CN(Cc1ccc(Cl)c(Cl)c1)C(=O)Cn1cnc2ccc(C3CCN(C(=O)CS(N)(=O)=O)CC3)cc2c1=O` [Example 165, N-[(3,4-Dichlorophenyl)methyl]-N-methyl-2-[4-oxo-6-[1-(2-sulfamoylacetyl)piperidin-4-yl]quinazolin-3-yl]acetamide]: 0.02 µM; `CC(=O)N1CCN(c2ccc3nc(C)n(CC(=O)NCc4ccc(Cl)c(Cl)c4)c(=O)c3c2)CC1` [Example 151, 2-[6-(4-Acetylpiperazin-1-yl)-2-methyl-4-oxoquinazolin-3-yl]-N-[(3,4-dichlorophenyl)methyl]acetamide]: 0.021 µM. In the case of `O=C(Cn1cnc2ccc(N3CCN(Cc4cnc[nH]4)CC3)cc2c1=O)NCc1ccc(Cl)c(Cl)c1` [Example 101], the IC50 came to 0.064 µM. Regarding `COCCNC(=O)N1CCN(c2ccc3ncn(CC(=O)NCc4ccc(Cl)c(Cl)c4)c(=O)c3c2)CC1` [Example 85], the IC50 was found to be 0.061 µM. The figure for `CN(Cc1ccc(Cl)c(Cl)c1)C(=O)Cn1cnc2ccc(C3CCN(C(=O)C4(O)CC4)CC3)cc2c1=O` [Example 179] is 0.156 µM. As for `CC(=O)N1CCC(c2ccc3ncn(CC(=O)N(C)Cc4ccc(Cl)c(Cl)c4)c(=O)c3c2)CC1` [Example 124], the IC50 is 0.007 µM.

Consider `O=C(Cn1cnc2ccc(N3CCN(C(=O)C4CCOCC4)CC3)cc2c1=O)NCc1ccc(Cl)c(Cl)c1` [Example 66], for which the IC50 stood at 0.19 µM.

`CN(Cc1ccc(Cl)c(Cl)c1)C(=O)Cn1cnc2ccc(C3CCN(C(=O)C(O)CO)CC3)cc2c1=O` (stereo not shown) [Example 177] returned an IC50 of 0.036 µM. `O=C(Cn1cnc2ccc(N3CCN(S(=O)(=O)C4CCCC4)CC3)cc2c1=O)NCc1ccc(Cl)c(Cl)c1` [Example 89] displayed an IC50 of 0.02 µM. This IC50 lies about 1.8-fold lower than the previous one. The figure for `CC(=O)N1CCN(c2ccc3ncn(CC(=O)NC(CC(=O)NCc4ccccc4)c4ccc(C(F)(F)F)cc4)c(=O)c3c2)CC1` (stereo not shown) [Example 8] is 0.279 µM; for `CC(=O)N1CCN(c2ccc3ncn(CC(=O)NCc4ccc(F)c(OC(F)(F)F)c4)c(=O)c3c2)CC1` [Example 26] it is 0.051 µM; for `CC(=O)N1CCN(c2ccc3ncn(CC(=O)NCc4noc(-c5ccc(Cl)cc5)n4)c(=O)c3c2)CC1` [Example 51] it is 0.051 µM.

The molecule `CN(Cc1ccc(Cl)c(Cl)c1)C(=O)Cn1cnc2ccc(C3CCN(C(=O)C4CCOC4)CC3)cc2c1=O` (stereo not shown) [Example 182] registered an IC50 of 0.008 µM. The molecule `CN(Cc1ccc(C#N)c(Cl)c1)C(=O)Cn1cnc2ccc(C3CCN(S(C)(=O)=O)CC3)cc2c1=O` [Example 145, N-[(3-Chloro-4-cyanophenyl)methyl]-N-methyl-2-[6-(1-methylsulfonylpiperidin-4-yl)-4-oxoquinazolin-3-yl]acetamide] showed a half-maximal inhibitory concentration (IC50) of 0.082 µM. `CC(=O)N1CCCN(c2ccc3ncn(CC(=O)N(C)Cc4ccc(C#N)c(Cl)c4)c(=O)c3c2)CC1` [Example 120] had an IC50 of 0.009 µM.

For `CC(=O)N1CCN(c2ccc3ncn(CC(=O)NCc4ccc(Cl)c(OC(F)(F)F)c4)c(=O)c3c2)CC1` [Example 38], the midpoint of inhibition, the IC50, lay at 0.004 µM. Against the preceding molecule, the IC50 is about 2.2-fold lower. The figure for `CN(Cc1ccc(Cl)c(Cl)c1)C(=O)Cn1cnc2ccc(N3CCN(C(=O)C4(C(F)(F)F)CCC4)CC3)cc2c1=O` [Example 76] is 0.01 µM. In the case of `O=C(Cn1cnc2ccc(N3CCN(C(=O)NC4CC4)CC3)cc2c1=O)NCc1ccc(Cl)c(Cl)c1` [Example 83], it took 0.03 µM to reach half-maximal inhibition (IC50).

For `CC(=O)N1CCC(c2cc3c(=O)n(CC(=O)N(C)Cc4ccc(C#N)c(Cl)c4)cnc3cn2)CC1` [Example 189, 2-[6-(1-Acetylpiperidin-4-yl)-4-oxopyrido[3,4-d]pyrimidin-3-yl]-N-[(3-chloro-4-cyanophenyl)methyl]-N-methylacetamide], half-maximal inhibition (IC50) was put at 0.001 µM. Next, `CC(=O)N1CCN(c2ccc3ncn(CC(=O)N(Cc4ccc(Cl)c(Cl)c4)C(C)C)c(=O)c3c2)CC1` [Example 117, 2-[6-(4-Acetylpiperazin-1-yl)-4-oxoquinazolin-3-yl]-N-[(3,4-dichlorophenyl)methyl]-N-propan-2-ylacetamide]: 0.016 µM; `CC(C)OCC(=O)N1CCC(c2ccc3ncn(CC(=O)N(C)Cc4ccc(C#N)c(Cl)c4)c(=O)c3c2)CC1` [Example 135]: 0.001 µM; `CC(=O)N1CCN(c2ccc3ncn(CC(=O)NC(CC(=O)N(C)C)c4ccc(C(F)(F)F)cc4)c(=O)c3c2)CC1` (stereo not shown) [Example 5]: 0.121 µM. Consider `CC(=O)N1CCN(c2ccc3ncn(CC(=O)N(C)Cc4cc(F)c(C#N)c(F)c4)c(=O)c3c2)CC1` [Example 58, 2-[6-(4-Acetylpiperazin-1-yl)-4-oxoquinazolin-3-yl]-N-[(4-cyano-3,5-difluorophenyl)methyl]-N-methylacetamide], for which half-maximal inhibition (IC50) required 0.015 µM. The figure for `CC(=O)N1CCN(c2ccc3ncn(CC(=O)NCc4ccc(Cl)c(F)c4)c(=O)c3c2)CC1` [Example 24] is 0.033 µM; for `CN(Cc1ccc(Cl)c(Cl)c1)C(=O)Cn1cnc2ccc(N3CCN(CC(=O)N4CCOCC4)CC3)cc2c1=O` [Example 111] it is 0.035 µM; for `CNC(=O)C[C@@H](NC(=O)Cn1cnc2ccc(N3CCN(C(C)=O)CC3)cc2c1=O)c1ccc(Cl)cc1` [Example 1, (3R)-3-[[2-[6-(4-Acetylpiperazin-1-yl)-4-oxoquinazolin-3-yl]acetyl]amino]-3-(4-chlorophenyl)-N-methylpropanamide] it is 0.269 µM. The figure for `CC(=O)N1CCC(c2ccc3ncn(CC(=O)N(C)Cc4ccc(Cl)c(OC(F)(F)F)c4)c(=O)c3c2)CC1` [Example 128, 2-[6-(1-Acetylpiperidin-4-yl)-4-oxoquinazolin-3-yl]-N-[[4-chloro-3-(trifluoromethoxy)phenyl]methyl]-N-methylacetamide] is 0.015 µM; for `CC(=O)N1CCN(c2ccc3ncn(CC(=O)NCc4ccc(C#N)cc4F)c(=O)c3c2)CC1` [Example 30] it is 0.139 µM. On to `CC(=O)N1CCN(c2ccc3ncn(CC(=O)N(C)Cc4ccc(Cl)c(C#N)c4)c(=O)c3c2)CC1` [Example 57, 2-[6-(4-Acetylpiperazin-1-yl)-4-oxoquinazolin-3-yl]-N-[(4-chloro-3-cyanophenyl)methyl]-N-methylacetamide], for which the IC50 turned out to be 0.008 µM.
